Columns and labels:
mu opiate receptor (MOR) = target: T1, mu opiate receptor (MOR) (Rattus norvegicus, UniProt P33535); test: MOR agonist activity, [35S]GTPγS binding assay using striatal membranes; format: biochemical; design: MOR agonist activity, [35S]GTPγS binding to Gαo: reference not given here
T1 construct: from tissue; host or cells: striatal membrane preparation (rat striatum)
Method: To assess the mu opiate receptor (MOR) agonist activity of positive compounds from the FLNA screening, compounds were tested in a [^35S]GTPγS binding assay using striatal membranes.
Striatal tissue was homogenized in 10 volumes of ice cold 25 mM HEPES buffer, pH 7.4, which contained 1 mM EGTA, 100 mM sucrose, 50 μg/ml leupeptin, 0.04 mM PMSF, 2 μg/ml soybean trypsin inhibitor and 0.2% 2-mercaptoethanol. The homogenates were centrifuged at 800×g for 5 minutes and the supernatants were centrifuged at 49,000×g for 20 minutes. The resulting pellets were suspended in 10 volume of reaction buffer, which contained 25 mM HEPES, pH 7.5, 100 mM NaCl, 50 μg/ml leupeptin, 2 μg/ml soybean trypsin inhibitor, 0.04 mM PMSF and 0.02% […].
The resultant striatal membrane preparation (200 μg) was admixed and maintained (incubated) at 30° C. for 5 minutes in reaction buffer as above that additionally contained 1 mM MgCl2 and 0.5 nM [^35S]GTPγS (0.1 μCi/assay, PerkinElmer Life and Analytical Sciences) in a total volume of 250 μl and continued for 5 minutes in the absence or presence of 0.1-10 μM of an assayed compound of interest. The reaction was terminated by dilution with 750 μl of ice-cold reaction buffer that contained 20 mM MgCl2 and 1 mM EGTA and immediate centrifugation at 16,000×g for 5 minutes.
The resulting pellet was solubilized by sonicating for 10 seconds in 0.5 ml of immunoprecipitation buffer containing 0.5% digitonin, 0.2% sodium cholate and 0.5% NP-40. Normal rabbit serum (1 μl) was added to 1 ml of lysate and incubated at 25° C. for 30 minutes. Nonspecific immune complexes were removed by incubation with 25 μl of protein A/G-conjugated agarose beads at 25° C. for 30 minutes followed by centrifugation at 5,000×g at 4° C. for 5 minutes. The supernatant was divided and separately incubated at 25° C. for 30 minutes with antibodies raised against Gαo proteins (1:1,000 dilutions).
The immunocomplexes so formed were collected by incubation at 25° C. for 30 minutes with 40 μl of agarose-conjugated protein A/G beads and centrifugation at 5,000×g at 4° C. for 5 minutes. The pellet was washed and suspended in buffer containing 50 mM Tris-HCl, pH 8.0, and 1% NP-40. The radioactivity in the suspension was determined by liquid scintillation spectrometry. […] DAMGO (H-Tyr-D-Ala-Gly-N-MePhe-Gly-OH; 1 or 10 μM) was used as a positive control.

[1] = Mouse hot-water tail-flick test; format: in vivo; conditions: orally administered
Method: The mouse “tail flick” test was used to assay the relative antinociceptive activity of compositions containing a compound to be assayed. This assay was substantially that disclosed by Xie et al., 2005 J. Neurosci 25:409-416.
The mouse hot-water tail-flick test was performed by placing the distal third of the tail in a water bath maintained at 52° C. The latency until tail withdrawal from the bath was determined and compared among the treatments. A 10 second cutoff was used to avoid tissue damage. Data are converted to percentage of antinociception by the following formula: (response latency−baseline latency)/(cutoff−baseline latency)×100 to generate dose-response curves. […] Relative potency was determined as a ratio of the A50 values.
To assess tolerance to the antinociceptive effect, the compound was administered twice daily for 7 days at an A90 dose (dose that results in a 90% antinociceptive effect in the 52° C. warm-water tail-flick test), and the tail-flick test was performed daily after the a.m. dose. […] Assays were typically carried out separately using at least 32 and 56 mg/kg dosages, with some assays also separately carried out at 18 and 100 mg/kg.

[2] = test system: TNF-α release from primary human astrocytes; test: LPS-induced cytokine release from primary human astrocytes, TNF-α; format: cell-based
Method: (§1) The following study was undertaken to investigate whether contemplated compounds and (+)NLX affect LPS-induced release of the pro-inflammatory cytokine (IL-1β, IL-6 and TNF-α) release from primary human astrocytes. […]
(§2) Primary astrocytes culture was prepared according to the provider's instructions (Lonza). The adherent astrocytes were trypsinized by 0.25% trypsin-EDTA, then collected and sub-cultured in 12-well plate (1.2 ml/well). […] Vehicle groups were pretreated with 0.1% DMSO only. Following addition of LPS, incubation continued for 24 hours. Culture medium was used as the blank and the levels of cytokines, TNF-α, IL-6 and IL-1β in 200 μl of culture medium were determined. Each well was sampled twice.
(§3) Plates were washed 3 times with ice-cold 50 mM Tris HCl (pH 7.4) and incubated at 30° C. with 200 μl medium derived from the above mentioned conditions. Plates were washed 3 times with ice-cold 50 mM Tris HCl (pH 7.4) and incubated at 30° C. with 0.5 μg/well un-conjugated rabbit anti-anti-INF-α, -IL-6 and -IL-1β for 1 hour. After two 1 minute washes with 50 mM Tris HCl (pH 7.4), each well was incubated in 0.5 μg/well FITC-conjugated anti-rabbit IgG (human and mouse absorbed) for 1 hour at 30° C. Plates were washed twice with 200 μl ice-cold Tris HCl, pH 7.4 and the residual […] signals were determined by multimode plate reader, DTX880 (Beckman).

[3] = test system: IL-6 release from primary human astrocytes; test: LPS-induced cytokine release from primary human astrocytes, IL-6; format: cell-based
Method: as §1, §2, §3

[4] = test system: IL-1β release from primary human astrocytes; test: LPS-induced cytokine release from primary human astrocytes, IL-1β; format: cell-based
Method: as §1, §2, §3

[5] = target: Bn-VAKGL pentapeptide of filamin A (FLNA) (Homo sapiens, UniProt P21333); test: FITC-NLX-based FLNA screening assay (FLNA peptide binding assay); conditions: 10 nM FITC-NLX, read-out: Percent inhibition of FITC-NLX binding
Method: The final assay volume is 100 μl.
Compounds are tested in triplicate or quadruplicate.

filamin A = filamin A (Homo sapiens, UniProt P21333); conditions: read-out: affinity of binding to filamin A; cited from earlier work
filamin A, sequence (P21333 whole entry): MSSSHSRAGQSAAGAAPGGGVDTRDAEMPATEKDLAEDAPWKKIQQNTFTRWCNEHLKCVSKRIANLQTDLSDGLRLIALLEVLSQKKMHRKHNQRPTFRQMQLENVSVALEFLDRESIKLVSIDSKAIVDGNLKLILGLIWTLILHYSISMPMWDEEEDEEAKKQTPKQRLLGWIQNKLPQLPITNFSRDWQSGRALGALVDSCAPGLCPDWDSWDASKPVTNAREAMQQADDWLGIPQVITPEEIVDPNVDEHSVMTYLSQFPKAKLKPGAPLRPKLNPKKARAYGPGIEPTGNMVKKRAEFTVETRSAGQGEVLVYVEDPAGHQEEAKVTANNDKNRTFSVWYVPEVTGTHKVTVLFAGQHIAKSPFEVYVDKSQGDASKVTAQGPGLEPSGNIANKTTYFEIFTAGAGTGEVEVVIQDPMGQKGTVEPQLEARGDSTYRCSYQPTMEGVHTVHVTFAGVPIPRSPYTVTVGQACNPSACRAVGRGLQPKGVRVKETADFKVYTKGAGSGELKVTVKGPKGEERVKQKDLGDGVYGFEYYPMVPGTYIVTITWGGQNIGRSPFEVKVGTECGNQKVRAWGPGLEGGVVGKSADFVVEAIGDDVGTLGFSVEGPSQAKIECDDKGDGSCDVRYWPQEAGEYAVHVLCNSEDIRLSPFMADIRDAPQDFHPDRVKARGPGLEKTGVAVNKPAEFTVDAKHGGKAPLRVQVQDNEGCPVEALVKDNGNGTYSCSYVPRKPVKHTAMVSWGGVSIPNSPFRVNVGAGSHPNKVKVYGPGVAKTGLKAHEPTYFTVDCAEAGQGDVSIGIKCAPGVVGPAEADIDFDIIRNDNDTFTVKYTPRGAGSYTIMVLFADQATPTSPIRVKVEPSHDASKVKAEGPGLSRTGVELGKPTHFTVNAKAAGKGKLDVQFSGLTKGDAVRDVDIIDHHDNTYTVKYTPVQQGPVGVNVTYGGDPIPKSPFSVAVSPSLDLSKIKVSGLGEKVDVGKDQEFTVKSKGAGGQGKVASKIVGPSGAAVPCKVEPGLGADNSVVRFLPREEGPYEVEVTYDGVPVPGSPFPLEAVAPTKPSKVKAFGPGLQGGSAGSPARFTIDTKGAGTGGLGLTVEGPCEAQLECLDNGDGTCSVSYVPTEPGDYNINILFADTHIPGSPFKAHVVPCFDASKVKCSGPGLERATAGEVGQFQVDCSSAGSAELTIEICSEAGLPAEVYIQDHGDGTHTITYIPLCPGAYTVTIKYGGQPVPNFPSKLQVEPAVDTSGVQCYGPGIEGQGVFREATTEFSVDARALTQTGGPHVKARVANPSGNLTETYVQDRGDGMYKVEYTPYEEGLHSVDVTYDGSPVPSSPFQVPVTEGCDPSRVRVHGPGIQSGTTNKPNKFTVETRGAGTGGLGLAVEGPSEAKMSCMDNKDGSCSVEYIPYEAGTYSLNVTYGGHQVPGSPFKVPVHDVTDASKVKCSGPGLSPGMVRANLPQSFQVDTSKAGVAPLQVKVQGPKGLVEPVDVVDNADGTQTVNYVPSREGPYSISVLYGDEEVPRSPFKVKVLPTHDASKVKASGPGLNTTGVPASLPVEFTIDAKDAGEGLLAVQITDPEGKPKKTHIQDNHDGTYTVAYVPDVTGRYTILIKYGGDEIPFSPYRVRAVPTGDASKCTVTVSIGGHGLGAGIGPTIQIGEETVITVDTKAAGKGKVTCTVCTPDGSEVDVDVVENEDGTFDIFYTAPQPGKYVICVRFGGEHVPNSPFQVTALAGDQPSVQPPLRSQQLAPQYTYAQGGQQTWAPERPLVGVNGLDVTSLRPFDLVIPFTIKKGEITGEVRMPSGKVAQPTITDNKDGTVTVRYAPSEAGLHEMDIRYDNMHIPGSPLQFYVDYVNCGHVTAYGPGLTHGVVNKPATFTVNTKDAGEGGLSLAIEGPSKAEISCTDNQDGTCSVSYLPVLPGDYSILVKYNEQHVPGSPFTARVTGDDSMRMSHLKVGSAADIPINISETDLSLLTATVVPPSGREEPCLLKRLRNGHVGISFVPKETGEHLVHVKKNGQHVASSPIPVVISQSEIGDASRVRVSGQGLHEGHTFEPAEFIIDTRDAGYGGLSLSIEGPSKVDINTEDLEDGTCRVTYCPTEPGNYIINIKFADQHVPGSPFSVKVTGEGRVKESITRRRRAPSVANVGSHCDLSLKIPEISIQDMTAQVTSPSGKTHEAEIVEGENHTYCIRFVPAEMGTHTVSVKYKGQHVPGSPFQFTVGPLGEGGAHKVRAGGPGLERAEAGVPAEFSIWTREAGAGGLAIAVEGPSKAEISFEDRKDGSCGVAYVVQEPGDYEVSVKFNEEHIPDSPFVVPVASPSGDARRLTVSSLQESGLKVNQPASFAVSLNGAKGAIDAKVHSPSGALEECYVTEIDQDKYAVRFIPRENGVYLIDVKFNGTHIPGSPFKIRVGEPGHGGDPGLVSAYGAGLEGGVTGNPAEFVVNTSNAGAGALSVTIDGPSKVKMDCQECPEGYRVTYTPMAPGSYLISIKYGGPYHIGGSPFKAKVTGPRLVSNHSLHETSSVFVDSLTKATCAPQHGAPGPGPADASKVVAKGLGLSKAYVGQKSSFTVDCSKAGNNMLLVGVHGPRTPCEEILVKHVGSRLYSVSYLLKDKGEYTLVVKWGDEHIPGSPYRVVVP

[6] = 0.1 μM compound, striatal membranes
[7] = 1 μM compound + BFNA (1 μM β-funaltrexamine)
[8] = 1 μM compound, striatal membranes
[9] = 10 pM compound 2 hours prior to LPS (1 μg/ml) and continued 24 hours
[10] = 1 nM compound 2 hours prior to LPS (1 μg/ml) and continued 24 hours
[11] = 100 nM compound 2 hours prior to LPS (1 μg/ml) and continued 24 hours
[12] = 100 fM compound 2 hours prior to LPS (1 μg/ml) and continued 24 hours

T1 sequence (P33535 whole entry): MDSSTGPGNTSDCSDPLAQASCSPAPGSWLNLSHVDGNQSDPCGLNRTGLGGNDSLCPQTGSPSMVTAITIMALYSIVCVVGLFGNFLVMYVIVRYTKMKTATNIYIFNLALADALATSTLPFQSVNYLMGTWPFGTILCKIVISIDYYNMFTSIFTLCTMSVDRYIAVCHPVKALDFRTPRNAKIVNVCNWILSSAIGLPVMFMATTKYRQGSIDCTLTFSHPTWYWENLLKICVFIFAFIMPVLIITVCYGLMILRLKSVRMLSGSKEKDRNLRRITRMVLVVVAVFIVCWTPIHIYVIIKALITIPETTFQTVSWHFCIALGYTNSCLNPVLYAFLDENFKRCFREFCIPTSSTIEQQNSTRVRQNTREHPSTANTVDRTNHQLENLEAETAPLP

CCc1ccc(S(=O)(=O)N2CCOC23CCN(CC2CC2)CC3)cc1 [Compound C0135M]
MOR agonist activity, [35S]GTPγS binding to Gαo (mu opiate receptor (MOR); [6]): 161.3% | MOR agonist activity, [35S]GTPγS binding to Gαo (mu opiate receptor (MOR); [7]): 113.3% | MOR agonist activity, [35S]GTPγS binding to Gαo (mu opiate receptor (MOR); [8]): 310.1%

COc1ccc(S(=O)(=O)N2CCC3(CC2)NCCC(=O)N3)cc1 [Compound C0142M]
MOR agonist activity, [35S]GTPγS binding to Gαo (mu opiate receptor (MOR); [6]): 143.7% | MOR agonist activity, [35S]GTPγS binding to Gαo (mu opiate receptor (MOR); [7]): 98.7% | MOR agonist activity, [35S]GTPγS binding to Gαo (mu opiate receptor (MOR); [8]): 192.5%

C[C@@H](NC(=O)[C@@H](N)Cc1ccc(O)cc1)C(=O)NCC(=O)N(C)[C@@H](Cc1ccccc1)C(=O)NCCO [DAMGO, reference compound]
MOR agonist activity, [35S]GTPγS binding to Gαo (mu opiate receptor (MOR); [6]): 168.5% | MOR agonist activity, [35S]GTPγS binding to Gαo (mu opiate receptor (MOR); [7]): 53.2% | MOR agonist activity, [35S]GTPγS binding to Gαo (mu opiate receptor (MOR); [8]): 266.1%

O=S(=O)(c1ccc(F)cc1)N1CCOC12CCN(CC1CC1)CC2 [F-C0134]
Maximum Antinociception (%) ([1]; 56 mg/kg): 93% | Time to Max. ([1]; 56 mg/kg): 20 min | TNF-α Average % (±SEM) [2, 9]: 75.7 (1.8) % | TNF-α Average % (±SEM) [2, 10]: 77.4 (4.2) % | TNF-α Average % (±SEM) [2, 11]: 75.4 (1.6) % | TNF-α Average % (±SEM) [2, 12]: 77.0 (2.8) % | IL-6 Average % (±SEM) [3, 9]: 78.8 (1.5) % | IL-6 Average % (±SEM) [3, 10]: 78.2 (1.8) % | IL-6 Average % (±SEM) [3, 11]: 76.3 (2.8) % | IL-6 Average % (±SEM) [3, 12]: 81.3 (2.4) % | IL-1β Average % (±SEM) [4, 9]: 78.0 (5.5) % | IL-1β Average % (±SEM) [4, 10]: 77.7 (2.9) % | IL-1β Average % (±SEM) [4, 11]: 73.2 (3.9) % | IL-1β Average % (±SEM) [4, 12]: 73.3 (5.3) %

C=CCN1CC[C@]23c4c5ccc(O)c4O[C@H]2C(=O)CC[C@@]3(O)[C@H]1C5 [NLX, naloxone, reference compound]
inhibition at 0.01 µM ([5]; 0.01 μM compound): 40.6% | inhibition at 0.1 µM ([5]; 0.1 μM compound): 47.8% | inhibition at 1 µM ([5]; 1 μM compound): 51.5% | Kd (filamin A): ~4 pM

COc1ccc(S(=O)(=O)N2CCSC23CCNCC3)cc1 [S-C0027]
Maximum Antinociception (%) ([1]; 56 mg/kg): 70% | Time to Max. ([1]; 56 mg/kg): 30 min | Maximum Antinociception (%) ([1]; 100 mg/kg): 90% | Time to Max. ([1]; 100 mg/kg): 30 min | MOR agonist activity, [35S]GTPγS binding to Gαo (mu opiate receptor (MOR); [6]): 156.2% | MOR agonist activity, [35S]GTPγS binding to Gαo (mu opiate receptor (MOR); [7]): 56.2% | MOR agonist activity, [35S]GTPγS binding to Gαo (mu opiate receptor (MOR); [8]): 286.8% | TNF-α Average % (±SEM) [2, 9]: 73.6 (3.8) % | TNF-α Average % (±SEM) [2, 10]: 72.7 (0.7) % | TNF-α Average % (±SEM) [2, 11]: 74.0 (1.7) % | TNF-α Average % (±SEM) [2, 12]: 77.7 (2.7) % | IL-6 Average % (±SEM) [3, 9]: 75.6 (1.5) % | IL-6 Average % (±SEM) [3, 10]: 77.4 (4.2) % | IL-6 Average % (±SEM) [3, 11]: 83.1 (2.1) % | IL-6 Average % (±SEM) [3, 12]: 81.0 (1.7) % | IL-1β Average % (±SEM) [4, 9]: 85.8 (1.3) % | IL-1β Average % (±SEM) [4, 10]: 81.9 (2.3) % | IL-1β Average % (±SEM) [4, 11]: 79.5 (2.4) % | IL-1β Average % (±SEM) [4, 12]: 86.8 (2.0) %

CN1CC[C@]23c4c5ccc(O)c4O[C@H]2[C@@H](O)C=C[C@H]3[C@H]1C5 [morphine, reference compound]
Maximum Antinociception (%) ([1]; 56 mg/kg): 43% | Time to Max. ([1]; 56 mg/kg): 20 min
